According to patent US20250115598A1 (Anaxis Pharma Pty Ltd, priority 2021, published 2025):

Assays:
human RIPK1 = human RIPK1 (Homo sapiens (Human), UniProt Q13546); assay: KINOMEscan binding assay, human RIPK1; settings: Table 21
Method: (§1) Binding affinity of the test compounds for human MLKL (full length), mouse MLKL (full length), human RIPK1 and human RIPK3 was determined using the KINOMEscan™ technology developed by DiscoverX (USA; http://www.discoverx.com). The assay was conducted according to manufacturer instructions.
(§2) Kinase assays. For most assays, kinase-tagged T7 phage strains were grown in parallel in 24-well blocks in an E. coli host derived from the BL21 strain. E. coli were grown to log-phase and infected with T7 phage from a frozen stock (multiplicity of infection=0.4) and incubated with shaking at 32° C. until lysis (90-150 minutes). The lysates were centrifuged (6,000×g) and filtered (0.2 μm) to remove cell debris. The remaining kinases were produced in HEK-293 cells and subsequently tagged with DNA for qPCR detection. […] The liganded beads were blocked with excess biotin and washed with blocking buffer (SeaBlock (Pierce), 1% BSA, 0.05% Tween 20, 1 mM DTT) to remove unbound ligand and to reduce non-specific phage binding. […] All reactions were performed in polypropylene 384-well plates in a final volume of 20 μL. […] The kinase concentration in the eluates was measured by qPCR.
(§3) An 11-point 3-fold serial dilution of each test compound was prepared in 100% DMSO at 100× final test concentration and subsequently diluted to 1× in the assay (final DMSO concentration=1%). Most Kos were determined using a compound top concentration=30,000 nM.
(§4) KD for each test compound was calculated with a standard dose-response curve using the Hill equation (equation (1)): […]
(§5) The Hill Slope was set to −1.
(§6) Curves were fitted using a non-linear least square fit with the Levenberg-Marquardt algorithm.

human RIPK3 = human RIPK3 (Homo sapiens (Human), UniProt Q9Y572); assay: KINOMEscan binding assay, human RIPK3; settings: Table 21
Chain of human RIPK3 (Q9Y572 whole entry): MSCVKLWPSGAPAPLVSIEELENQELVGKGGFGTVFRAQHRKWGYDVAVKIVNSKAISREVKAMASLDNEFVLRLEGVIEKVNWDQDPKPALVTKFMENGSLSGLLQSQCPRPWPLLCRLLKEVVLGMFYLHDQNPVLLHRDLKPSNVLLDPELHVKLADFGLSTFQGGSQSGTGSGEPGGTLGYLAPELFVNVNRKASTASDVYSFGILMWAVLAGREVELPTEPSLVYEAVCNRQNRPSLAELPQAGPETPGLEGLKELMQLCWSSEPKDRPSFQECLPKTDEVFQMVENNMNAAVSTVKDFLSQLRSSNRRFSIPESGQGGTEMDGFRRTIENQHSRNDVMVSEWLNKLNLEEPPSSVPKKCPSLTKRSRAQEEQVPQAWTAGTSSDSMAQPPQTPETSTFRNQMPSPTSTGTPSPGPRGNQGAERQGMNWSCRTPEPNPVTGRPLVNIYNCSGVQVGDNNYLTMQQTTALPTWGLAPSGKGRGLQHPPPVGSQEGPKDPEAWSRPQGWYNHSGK
Method: as §1, §2, §3, §4, §5, §6

Chain of human RIPK1 (Q13546 whole entry): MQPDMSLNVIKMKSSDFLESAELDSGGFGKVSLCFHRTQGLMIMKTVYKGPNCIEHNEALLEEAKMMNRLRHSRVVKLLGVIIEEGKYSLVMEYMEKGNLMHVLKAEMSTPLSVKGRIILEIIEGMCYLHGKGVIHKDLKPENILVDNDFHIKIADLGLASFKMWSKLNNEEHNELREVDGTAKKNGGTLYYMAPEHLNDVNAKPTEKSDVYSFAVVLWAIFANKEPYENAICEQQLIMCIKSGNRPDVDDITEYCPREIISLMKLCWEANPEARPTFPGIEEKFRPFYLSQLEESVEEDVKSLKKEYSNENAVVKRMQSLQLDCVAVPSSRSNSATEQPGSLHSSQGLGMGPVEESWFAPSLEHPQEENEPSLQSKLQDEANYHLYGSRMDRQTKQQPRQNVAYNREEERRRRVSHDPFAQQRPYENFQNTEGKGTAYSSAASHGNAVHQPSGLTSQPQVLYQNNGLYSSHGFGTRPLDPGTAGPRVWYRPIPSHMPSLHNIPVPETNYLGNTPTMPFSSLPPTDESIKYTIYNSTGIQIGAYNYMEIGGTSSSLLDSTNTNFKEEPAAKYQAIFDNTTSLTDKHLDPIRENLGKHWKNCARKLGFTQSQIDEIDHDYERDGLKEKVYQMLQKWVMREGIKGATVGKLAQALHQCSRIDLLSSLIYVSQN

Row | Kd (human RIPK1) [µM] | Kd (human RIPK3) [µM] | SMILES
1 | > 10 | > 10 | C[C@H](Oc1cc(-c2nn(C)c3c(-c4ccnc(N(C)C)c4)cnc(N)c23)ccc1NS(=O)(=O)C(F)F)c1ccc(F)cc1 [Compound 49, (S)-N-(4-(4-amino-7-(2-(dimethylamino)pyridin-4-yl)-1-methyl-1H-pyrazolo[4,3-c]pyridin-3-yl)-2-(1-(4-fluorophenyl)ethoxy)phenyl)-1,1-difluoromethanesulfonamide]
2 | > 10 | > 10 | CC(C)n1nc(-c2ccc(NS(=O)(=O)C(F)F)c(O[C@@H](C)c3ccc(F)cc3)c2)c2c(N)ncc(-c3cnn(C4CCOCC4)c3)c21 [Compound 51, (S)-N-(4-(4-amino-1-isopropyl-7-(1-(tetrahydro-2H-pyran-4-yl)-1H-pyrazol-4-yl)-1H-pyrazolo[4,3-c]pyridin-3-yl)-2-(1-(4-fluorophenyl)ethoxy)phenyl)-1,1-difluoromethane-sulfonamide]
3 | > 10 | > 10 | CC(C)n1nc(-c2ccc(NS(=O)(=O)C(F)F)c(O[C@@H](C)c3ccc(F)cc3)c2)c2c(N)ncc(-c3cnn(C)c3)c21 [Compound 52, (S)-N-(4-(4-amino-1-isopropyl-7-(1-methyl-1H-pyrazol-4-yl)-1H-pyrazolo[4,3-c]pyridin-3-yl)-2-(1-(4-fluorophenyl)ethoxy)phenyl)-1,1-difluoromethane-sulfonamide]
4 | > 10 | 0.1 to 10 | C[C@H](Oc1cc(-c2nn(C)c3c(-c4ccnc(C(F)F)c4)cnc(N)c23)ccc1NS(=O)(=O)C(F)F)c1ccc(F)cc1 [Compound 57, (S)-N-(4-(4-amino-7-(2-(difluoromethyl)pyridin-4-yl)-1-methyl-1H-pyrazolo[4,3-c]pyridin-3-yl)-2-(1-(4-fluorophenyl)ethoxy)phenyl)-1,1-difluoromethanesulfonamide]
5 | > 10 | > 10 | C[C@H](Oc1cc(-c2nn(C)c3c(-c4cnn(C5CCN(CC(F)(F)F)CC5)c4)cnc(N)c23)ccc1NS(=O)(=O)C(F)F)c1ccc(F)cc1 [Compound 61, (S)-N-(4-(4-amino-1-methyl-7-(1-(1-(2,2,2-trifluoroethyl)piperidin-4-yl)-1H-pyrazol-4-yl)-1H-pyrazolo[4,3-c]pyridin-3-yl)-2-(1-(4-fluorophenyl)ethoxy)phenyl)-1,1-difluoromethanesulfonamide]
6 | > 10 | > 10 | CCS(=O)(=O)Nc1ccc(-c2ncn3ccnc(N)c23)cc1OCc1ccc(F)cc1 [Compound 63, N-(4-(8-Aminoimidazo[1,5-a]pyrazin-1-yl)-2-((4-fluorophenyl)methoxy)phenyl) ethane-1-sulfonamide]
7 | > 10 | > 10 | CCS(=O)(=O)Nc1ccc(-c2cnn3ccnc(N)c23)cc1OCc1ccc(F)cc1 [Compound 64, N-(4-(4-Aminopyrazolo[1,5-a]pyrazin-3-yl)-2-((4-fluorophenyl)methoxy)phenyl)ethane-1-sulfonamide]
8 | > 10 | > 10 | Nc1n[nH]c2ccnc(-c3ccc(NS(=O)(=O)CC(F)(F)F)c(OCc4ccc(F)cc4)c3)c12 [Compound 65, N-(4-(3-amino-1H-pyrazolo[4,3-c]pyridin-4-yl)-2-((4-fluorophenyl)methoxy)phenyl)-2,2,2-trifluoroethane-1-sulfonamide]
9 | > 10 | > 10 | Nc1n[nH]c2ccnc(-c3ccc(NS(=O)(=O)C(F)F)c(OCc4ccc(F)cc4)c3)c12 [Compound 68, N-(4-(3-amino-1H-pyrazolo[4,3-c]pyridin-4-yl)-2-((4-fluorophenyl)methoxy)phenyl)-1,1-difluoromethanesulfonamide]
10 | > 10 | > 10 | C[C@H](Oc1cc(-c2nn(C)c3c(-c4cnn(C5CCCNCC5)c4)cnc(N)c23)ccc1NS(=O)(=O)C(F)F)c1ccc(F)cc1 (stereo partly drawn) [Compound 74, N-(4-(4-amino-7-(1-(azepan-4-yl)-1H-pyrazol-4-yl)-1-methyl-1H-pyrazolo[4,3-c]pyridin-3-yl)-2-((S)-1-(4-fluorophenyl)ethoxy)phenyl)-1,1-difluoromethane-sulfonamide]
11 | > 10 | > 10 | C[C@H](Oc1cc(-c2nn(C)c3c(-c4cc(C#N)n(C)c4)cnc(N)c23)ccc1NS(=O)(=O)C(F)F)c1ccc(F)cc1 [Compound 83, (S)-N-(4-(4-amino-7-(5-cyano-1-methyl-1H-pyrrol-3-yl)-1-methyl-1H-pyrazolo[4,3-c]pyridin-3-yl)-2-(1-(4-fluorophenyl)ethoxy)phenyl)-1,1-difluoromethanesulfonamide]

Second part, the molecule before the results:

Row | SMILES | Kd (human RIPK1) [µM] | Kd (human RIPK3) [µM]
12 | Nc1ncc(-c2cnn(C3CCOCC3)c2)c2occ(-c3ccc(NS(=O)(=O)CC(F)(F)F)c(OCc4ccc(F)cc4)c3)c12 [Compound 11, N-(4-(4-amino-7-(1-(tetrahydro-2H-pyran-4-yl)-1H-pyrazol-4-yl)furo[3,2-c]pyridin-3-yl)-2-((4-fluorobenzyl)oxy)phenyl)-2,2,2-trifluoroethane-1-sulfonamide] | > 10 | > 10
13 | C[C@H](Oc1cc(-c2cnn3ccnc(N)c23)ccc1NS(=O)(=O)C(F)F)c1ccc(F)cc1 [Compound 22, (S)—N-(4-(4-aminopyrazolo[1,5-a]pyrazin-3-yl)-2-(1-(4-fluorophenyl)ethoxy)phenyl)-1,1-difluoromethanesulfonamide] | > 10 | > 10
14 | C[C@H](Oc1cc(-c2nn(C)c3c(-c4ccnc(C(F)(F)F)c4)cnc(N)c23)ccc1NS(=O)(=O)C(F)F)c1ccc(F)cc1 [Compound 23, (S)-N-(4-(4-amino-1-methyl-7-(2-(trifluoromethyl)pyridin-4-yl)-1H-pyrazolo[4,3-c]pyridin-3-yl)-2-(1-(4-fluorophenyl)ethoxy)phenyl)-1,1-difluoromethanesulfonamide] | > 10 | > 10
15 | COc1cc(-c2cnc(N)c3c(-c4ccc(NS(=O)(=O)C(F)F)c(O[C@@H](C)c5ccc(F)cc5)c4)nn(C)c23)ccn1 [Compound 27, (S)-N-(4-(4-amino-7-(2-methoxypyridin-4-yl)-1-methyl-1H-pyrazolo[4,3-c]pyridin-3-yl)-2-(1-(4-fluorophenyl)ethoxy)phenyl)-1,1-difluoromethanesulfonamide] | > 10 | > 10
16 | C[C@H](Oc1cc(-c2nn(C)c3c(-c4cnn(C5CCCC5)c4)cnc(N)c23)ccc1NS(=O)(=O)C(F)F)c1ccc(F)cc1 [Compound 30, (S)-N-(4-(4-amino-7-(1-cyclopentyl-1H-pyrazol-4-yl)-1-methyl-1H-pyrazolo[4,3-c]pyridin-3-yl)-2-(1-(4-fluorophenyl)ethoxy)phenyl)-1,1-difluoromethanesulfonamide] | > 10 | 0.1 to 10
17 | Cc1noc(C)c1-c1cnc(N)c2c(-c3ccc(NS(=O)(=O)C(F)F)c(O[C@@H](C)c4ccc(F)cc4)c3)nn(C)c12 [Compound 33, (S)-N-(4-(4-amino-7-(3,5-dimethylisoxazol-4-yl)-1-methyl-1H-pyrazolo[4,3-c]pyridin-3-yl)-2-(1-(4-fluorophenyl)ethoxy)phenyl)-1,1-difluoromethanesulfonamide] | > 10 | > 10
18 | C[C@H](Oc1cc(-c2nn(C)c3c(Cc4ccccc4)cnc(N)c23)ccc1NS(=O)(=O)C(F)F)c1ccc(F)cc1 [Compound 34, (S)-N-(4-(4-amino-7-benzyl-1-methyl-1H-pyrazolo[4,3-c]pyridin-3-yl)-2-(1-(4-fluorophenyl)ethoxy)phenyl)-1,1-difluoromethanesulfonamide] | > 10 | > 10
19 | C[C@H](Oc1cc(-c2nn(C)c3c(C4CCN(C)CC4)cnc(N)c23)ccc1NS(=O)(=O)C(F)F)c1ccc(F)cc1 [Compound 42, (S)—N-(4-(4-amino-1-methyl-7-(1-methylpiperidin-4-yl)-1H-pyrazolo[4,3-c]pyridin-3-yl)-2-(1-(4-fluorophenyl)ethoxy)phenyl)-1,1-difluoromethanesulfonamide] | > 10 | > 10
20 | C[C@H](Oc1cc(-c2nn(C)c3c(C4=CCOCC4)cnc(N)c23)ccc1NS(=O)(=O)C(F)F)c1ccc(F)cc1 [Compound 43, (S)-N-(4-(4-amino-7-(3,6-dihydro-2H-pyran-4-yl)-1-methyl-1H-pyrazolo[4,3-c]pyridin-3-yl)-2-(1-(4-fluorophenyl)ethoxy)phenyl)-1,1-difluoromethanesulfonamide] | > 10 | > 10
21 | C[C@H](Oc1cc(-c2nn(C)c3c(-c4cnn(C5CCOCC5)c4)cnc(N)c23)ccc1NS(=O)(=O)CC(F)(F)F)c1ccc(F)cc1 [Compound 44, (S)—N-(4-(4-amino-1-methyl-7-(1-(tetrahydro-2H-pyran-4-yl)-1H-pyrazol-4-yl)-1H-pyrazolo[4,3-c]pyridin-3-yl)-2-(1-(4-fluorophenyl)ethoxy)phenyl)-2,2,2-trifluoroethane-1-sulfonamide] | > 10 | > 10
22 | CCS(=O)(=O)Nc1ccc(-c2nn(C)c3c(-c4cnn(C5CCOCC5)c4)cnc(N)c23)cc1O[C@@H](C)c1ccc(F)cc1 [Compound 45, (S)-N-(4-(4-amino-1-methyl-7-(1-(tetrahydro-2H-pyran-4-yl)-1H-pyrazol-4-yl)-1H-pyrazolo[4,3-c]pyridin-3-yl)-2-(1-(4-fluorophenyl)ethoxy)phe-nyl)ethanesulfonamide] | > 10 | 0.1 to 10
